The values below come from ChEMBL document CHEMBL1201862, “PubChem BioAssay data set” (2004).

Holding throughout (test): NCI-60 cell line screen, 48 h
Test [1] concerns 786-0.
Test [2] has as its system HOP-62.
Test [3] relates to NCI/ADR-RES.
For test [4], the system named is TK-10.
Test [5] has as its system SF-295.
The subject of test [6] is BT-549.
Test [7] has as its system SW-620.
In test [8] the test system is SF-268.
Test [9] deals with SR.
In test [10] the test system is LOX IMVI.
The test system of test [11] is MOLT-4.
Test [12] concerns SK-OV-3.
For test [13], the system named is MCF7.
The subject of test [14] is SK-MEL-28.
Test [15] has as its system MDA-N.
For test [16], the system named is CCRF-CEM.
Test [17] deals with A549.
The test system of test [18] is DU-145.
For test [19], the system named is SN12C.
Test [20] has as its system EKVX.

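All cell lines were grown in 96-well plates and treated with compound for 48 hours. Abbreviation: GI50, concentration required for 50% inhibition of growth.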 Calls of active or inactive are those of the source. Cut-off read from the data, not from the text of the source: active = GI50 up to about 1.1 µM and inactive = higher. A value given as a limit tells only on which side of the number the result lay.

Consider `C[C@]12CCC(=O)[C@@H](CCC3=CC(=O)C=CC3=O)[C@@H]1CCC2=O`, for which the GI50 is 10 µM (inactive) in [1]; 39.2 µM (inactive) in [2]; 38 µM (inactive) in [3]; 16 µM (inactive) in test [4]; 17.8 µM (inactive) in test [5]; 11 µM (inactive) in [6]. In addition, the GI50 in test [7] is 18.2 µM (inactive); in test [8] it was 14.3 µM (inactive); in test [9], 0.0102 µM (active); in [10] it was 11 µM (inactive); in test [11], 5.21 µM (inactive); in test [12], 26.1 µM (inactive). Further, the GI50 in [13] is 13.9 µM (inactive); in test [14], 13.2 µM (inactive); in test [15], 23.8 µM (inactive); in [16], 1.87 µM (inactive); in [17] it was 18.8 µM (inactive); in [18], 17.9 µM (inactive). The GI50 in [19] is 37.4 µM (inactive); in [20], 18.4 µM (inactive).

Turning to `COc1ccc2c(c1)CCc1c-2n(CCN2CCCCC2)c2ccc(OC)cc12`, the GI50 in test [1] was > 100 µM (inactive); in [2], > 100 µM (inactive); in test [3], 28.2 µM (inactive); in test [4], > 100 µM (inactive); in test [5], > 100 µM (inactive); in [6], > 100 µM (inactive). Besides, the GI50 is > 100 µM (inactive) in test [7]; > 100 µM (inactive) in [8]; > 100 µM (inactive) in test [9]; > 100 µM (inactive) in [10]; > 10 µM (inactive) in [11]; > 100 µM (inactive) in test [12]. Also, the GI50 in [13], in [14], in test [15], in test [16], in test [17] and in [18] was > 100 µM (inactive) each time. Besides, the GI50 in [19] and in [20] was > 100 µM (inactive) in each case.

On to `COc1cc(CC(C)C(C)Cc2ccc(O)c(OC)c2)ccc1O` (stereo not given) [DIHYDROGUAIARETIC ACID], for which the GI50 in test [1] was 19.9 µM (inactive); in test [2] it was 23.9 µM (inactive); in [3], 16.2 µM (inactive); in [4], 34 µM (inactive); in test [5] it was 17.2 µM (inactive); in test [6] it was 15.1 µM (inactive). For the same compound, the GI50 was 18.2 µM (inactive) in test [7]; 15.7 µM (inactive) in test [8]; 9.2 µM (inactive) in test [9]; 11.5 µM (inactive) in test [10]; 9.29 µM (inactive) in [11]; 20.9 µM (inactive) in [12]. In addition, the GI50 was 17.9 µM (inactive) in test [13]; 21 µM (inactive) in test [14]; 17.3 µM (inactive) in test [15]; 13.3 µM (inactive) in test [16]; 14.5 µM (inactive) in test [17]; 22.3 µM (inactive) in [18]. Besides, the results for the GI50 in test [19] and in test [20] were 15.4 µM (inactive) and 15.5 µM (inactive), respectively.

Turning to `CN(C)CCCNc1c2c(nc3ccc(Cl)cc13)CCCC2`, the GI50 in test [1] was 10.5 µM (inactive); in [2], 12.9 µM (inactive); in test [3], 18.1 µM (inactive); in test [4] it was 15.2 µM (inactive); in test [5] it was 14.5 µM (inactive); in [6], 18.1 µM (inactive). Further, the GI50 in test [7] is 9.75 µM (inactive); in [8], 13.2 µM (inactive); in [9], 2.55 µM (inactive); in [10] it was 11.9 µM (inactive); in test [11], 4.12 µM (inactive); in test [12] it was 23 µM (inactive). The GI50 in [13] was 12.1 µM (inactive); in test [14], 18.3 µM (inactive); in test [15], 13.5 µM (inactive); in [16] it was 3.93 µM (inactive); in [17] it was 16.8 µM (inactive); in test [18] it was 13.9 µM (inactive). In addition, the GI50 was 11.8 µM (inactive) in test [19] and 14.9 µM (inactive) in test [20].

For the compound `COC(=O)C1(Cc2ccccc2C)Cc2ccc(C)cc2C1=O` (stereo not given), the GI50 in test [1] is 45.6 µM (inactive); in test [2], 56.4 µM (inactive); in test [3], 16.7 µM (inactive); in test [4], 15.5 µM (inactive); in test [5] it was 34.4 µM (inactive); in test [6], 49.1 µM (inactive). The GI50 in [7] was 45 µM (inactive); in [8], 69.7 µM (inactive); in test [9], 13.9 µM (inactive); in test [10], 19.7 µM (inactive); in test [11], 23.6 µM (inactive); in test [12], 55.2 µM (inactive). Moreover, the GI50 in test [13] is 20 µM (inactive); in test [14] it was 79.8 µM (inactive); in test [15], 29.9 µM (inactive); in test [16], 48 µM (inactive); in [17], 33.2 µM (inactive); in test [18], 56.8 µM (inactive). The GI50 is 21.6 µM (inactive) in [19] and 41.4 µM (inactive) in test [20].

As for `COc1ccc2c(c1)/C(=C\c1c(Cl)[nH]c3cc(C)c(OC)cc13)C(=O)N2`, the GI50 in test [1] was 1.19 µM (inactive); in test [2] it was 4.44 µM (inactive); in test [3], 0.811 µM (active); in test [4], 1.64 µM (inactive); in test [5] it was 0.396 µM (active); in test [6], 0.679 µM (active). Further, the GI50 in test [7] is 1.22 µM (inactive); in [8], 0.986 µM (active); in [9] it was 0.357 µM (active); in [10] it was 0.753 µM (active); in test [11], 0.893 µM (active); in test [12], 0.423 µM (active). In addition, the GI50 in test [13] was 0.41 µM (active); in test [14], 10.6 µM (inactive); in test [15], 0.23 µM (active); in [16], 0.726 µM (active); in test [17], 1.19 µM (inactive); in test [18] it was 1.66 µM (inactive). Besides, the GI50 was 2.09 µM (inactive) in test [19] and 2.1 µM (inactive) in test [20].

Regarding `COc1c(OC(C)=O)c(OC(C)=O)cc2c1-c1ccc(OC)c(=O)cc1C(NC(C)=O)CC2` (stereo not given), the GI50 in [1] is 0.027 µM (active); in test [2] it was 0.0635 µM (active); in test [3] it was 1.6 µM (inactive); in [4], 2.7 µM (inactive); in [5], 0.0424 µM (active); in test [6], > 100 µM (inactive). The GI50 in test [7] was < 0.0125 µM (active); in [8] it was 0.0218 µM (active); in [9], 0.0128 µM (active); in [10], < 0.0147 µM (active); in test [11], 0.0155 µM (active); in test [12], 2.29 µM (inactive). Further, the GI50 in [13] was < 0.01 µM (active); in test [14], < 0.0363 µM (active); in [15], < 0.01 µM (active); in [16] it was 0.013 µM (active); in [17], 0.209 µM (active); in [18], 0.0525 µM (active). The GI50 was 0.0348 µM (active) in test [19] and 8.51 µM (inactive) in test [20].

Consider `O=C(NC12CC3CC(CC(C3)C1)C2)n1cnc2c(Cl)ncnc21`, for which the GI50 in test [1] is > 100 µM (inactive); in test [2], 37.5 µM (inactive); in test [3], > 100 µM (inactive); in test [4] it was > 100 µM (inactive); in [5], 59.8 µM (inactive); in test [6], 31.3 µM (inactive). Further, the GI50 is 37 µM (inactive) in test [7]; 22.6 µM (inactive) in test [8]; 10.8 µM (inactive) in test [9]; 18.7 µM (inactive) in [10]; 15 µM (inactive) in [11]; 34.3 µM (inactive) in test [12]. Also, the GI50 in [13] is > 100 µM (inactive); in test [14], 42.9 µM (inactive); in test [15] it was 21.6 µM (inactive); in [16], 7.71 µM (inactive); in test [17] it was 38.4 µM (inactive); in [18], 24.3 µM (inactive). Besides, the GI50 is > 100 µM (inactive) in test [19] and 25.8 µM (inactive) in [20].

Turning to `N#CC1=C(N)N(c2ccccc2)C(c2ccccc2)C1(C#N)C#N` (stereo not given), the GI50 in test [1] was 17.5 µM (inactive); in test [2] it was 18 µM (inactive); in test [3], 20.3 µM (inactive); in test [4], 16.5 µM (inactive); in [5], 18.4 µM (inactive); in [6] it was 16.7 µM (inactive). In addition, the GI50 in test [7] is 19.1 µM (inactive); in test [8], 22.6 µM (inactive); in test [9] it was 17.1 µM (inactive); in test [10], 16.6 µM (inactive); in test [11], 12.3 µM (inactive); in test [12], 24.9 µM (inactive). In addition, the GI50 in [13] was 14.8 µM (inactive); in [14] it was 16.7 µM (inactive); in [15], 19.3 µM (inactive); in test [16], 12.8 µM (inactive); in [17], 17.8 µM (inactive); in test [18], 17.8 µM (inactive). Also, the GI50 in test [19] was 18.8 µM (inactive); in test [20], 19.7 µM (inactive).

In the case of `Nc1nc(=O)c(/N=N/c2ccccc2)c(C(=O)O)[nH]1`, the GI50 is 71.6 µM (inactive) in test [1]; 55.3 µM (inactive) in test [2]; > 100 µM (inactive) in test [3]; > 100 µM (inactive) in test [4]; 56.6 µM (inactive) in [5]; > 100 µM (inactive) in test [6]. In addition, the GI50 in test [7] is > 100 µM (inactive); in test [8], 72.3 µM (inactive); in test [9], 35.3 µM (inactive); in [10] it was 74.6 µM (inactive); in test [11], 46.3 µM (inactive); in test [12], > 100 µM (inactive). Further, the GI50 in test [13] was 79.3 µM (inactive); in test [14] it was > 100 µM (inactive); in test [15], > 100 µM (inactive); in test [16], 40.1 µM (inactive); in test [17] it was 84.5 µM (inactive); in test [18], 98.6 µM (inactive). Further, the GI50 in [19] was 96.6 µM (inactive); in [20], 23.3 µM (inactive).
